Laboratory results published in ChEMBL document CHEMBL2046420, “Edible Myrciaria vexator fruits: bioactive phenolics for potential COPD therapy” (Bioorg Med Chem, 2012).
Calls of active or inactive are those of the source. The rule behind the calls is not given here.

Columns and labels:
[1] = Cytotoxicity against human SAE cells at 1 to 10 ug/ml; type: cell-based
SAE [2] = test: Inhibition of CPE-induced MMP1 mRNA expression in human SAE cells after 24 hrs by quantitative RT-PCR analysis; type: functional, cell-based
SAE [3] = test: Inhibition of MMP1 mRNA expression in human SAE cells at 1 to 10 ug/ml after 24 hrs by quantitative RT-PCR analysis; type: functional, cell-based
[4] = Inhibition of CPE-induced MMP1 mRNA expression in human SAE cells after 24 hrs by quantitative RT-PCR analysis relative to control; type: functional

SMILES: O=c1oc2c(O)c(O)cc3c(=O)oc4c(O)c(O)cc1c4c23 [ELLAGIC ACID]
- Activity [1]: Non-toxic
- inhibition (SAE [2]): Dose-dependent effect
- inhibition (SAE [3]): Active
- fold change (FC) [4]: 6
